Data taken from patent publication US20190192697A1, “CHEMICAL PROBES OF LYSYL OXIDASK-LIKE 2 AND USES THEREOF” (PHARMAKEA, INC., priority 2016, published 2019).
Counter-ions that a name gives are not always drawn.

Legend:
[1] = target: T1, LOXL2 (Homo sapiens, UniProt Q9Y4K0); assay: Western-based magnetic bead assay for free/unbound LOXL2 in human plasma pre-incubated with compound; type: binding; parameters: from tissue; host or cells: human plasma (donors / healthy volunteers); settings: 10 mL human plasma, 2 hours at 37° C., capture with FG beads (Compound 1-7)
T1 sequence (Q9Y4K0 26-774): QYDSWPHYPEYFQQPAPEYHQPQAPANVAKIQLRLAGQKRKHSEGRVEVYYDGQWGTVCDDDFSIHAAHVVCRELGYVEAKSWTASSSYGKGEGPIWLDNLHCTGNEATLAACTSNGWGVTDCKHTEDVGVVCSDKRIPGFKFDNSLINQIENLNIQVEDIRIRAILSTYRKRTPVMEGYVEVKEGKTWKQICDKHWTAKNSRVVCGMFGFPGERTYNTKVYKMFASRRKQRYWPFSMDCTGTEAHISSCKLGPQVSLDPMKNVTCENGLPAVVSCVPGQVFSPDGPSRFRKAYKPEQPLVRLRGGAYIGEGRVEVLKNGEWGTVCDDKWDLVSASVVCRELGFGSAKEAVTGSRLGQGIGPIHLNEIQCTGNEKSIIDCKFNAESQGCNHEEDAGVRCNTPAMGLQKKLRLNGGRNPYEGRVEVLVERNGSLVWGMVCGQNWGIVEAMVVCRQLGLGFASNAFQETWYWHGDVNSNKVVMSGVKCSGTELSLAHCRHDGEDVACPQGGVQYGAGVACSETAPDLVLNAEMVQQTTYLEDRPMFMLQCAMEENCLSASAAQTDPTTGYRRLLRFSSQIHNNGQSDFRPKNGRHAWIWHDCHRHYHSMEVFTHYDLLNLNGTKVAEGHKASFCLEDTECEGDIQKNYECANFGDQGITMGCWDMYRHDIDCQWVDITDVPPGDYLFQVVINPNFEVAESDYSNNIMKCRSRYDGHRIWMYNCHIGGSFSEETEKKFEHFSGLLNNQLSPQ
Experimental: Beads are resuspended to 10 mg/mL in Wash Buffer (20 mM Tris pH 8, 0.2% NP-40, 120 mM NaCl) and 1 mg beads (100 μL) are added to 1-10 mL of plasma, serum or other biological fluid containing LOXL2 and incubated at 37° C. for 0.5-2 hours with rotation. Beads are separated from plasma or other matrix using magnetic separation (for example, DynaMag™-15 Magnet) for 10 minutes at room temperature then the plasma/matrix carefully removed. The beads are resuspended in 1 mL Wash Buffer, vortexed and centrifuged at 4500×g for 5 minutes at room temperature to move all beads to the bottom of the tube. Beads are transferred to a 1.5 mL microfuge tube and washed 3 times with Wash Buffer using magnetic separation (for example, DynaMag™-2 Magnet). After the final wash, beads are resuspended in 40 μL of 1× BOLT® LDS Sample Buffer (Thermo Fisher, Waltham, Mass.) containing 1× BOLT® Sample Reducing Agent (Thermo Fisher, Waltham, Mass.) and incubated for 10 minutes at 90° C. Samples are centrifuged at 10,000×g for 1 minute then magnetically separated using a DynaMag™-2 Magnet for 2 minutes. 40 μL of each supernatant is loaded into one well of a 10 well 4-12% Bis-Tris Plus gel (Thermo Fisher, Waltham, Mass.) and the gels run for 45 minutes at 164 volts in 1×MES SDS Running Buffer (Thermo Fisher, Waltham, Mass.). […]

[2] = target: T1, LOXL2; assay: LOXL2 target engagement in plasma of healthy volunteers after single oral dose (Western-based FG bead assay); type: in vivo; parameters: from tissue; host or cells: human plasma (donors / healthy volunteers)
Experimental: Beads are resuspended to 10 mg/mL in Wash Buffer (20 mM Tris pH 8, 0.2% NP-40, 120 mM NaCl) and 1 mg beads (100 μL) are added to 1-10 mL of plasma, serum or other biological fluid containing LOXL2 and incubated at 37° C. for 0.5-2 hours with rotation. Beads are separated from plasma or other matrix using magnetic separation (for example, DynaMag™-15 Magnet) for 10 minutes at room temperature then the plasma/matrix carefully removed. The beads are resuspended in 1 mL Wash Buffer, vortexed and centrifuged at 4500×g for 5 minutes at room temperature to move all beads to the bottom of the tube. Beads are transferred to a 1.5 mL microfuge tube and washed 3 times with Wash Buffer using magnetic separation (for example, DynaMag™-2 Magnet). After the final wash, beads are resuspended in 40 μL of 1× BOLT® LDS Sample Buffer (Thermo Fisher, Waltham, Mass.) containing 1× BOLT® Sample Reducing Agent (Thermo Fisher, Waltham, Mass.) and incubated for 10 minutes at 90° C. Samples are centrifuged at 10,000×g for 1 minute then magnetically separated using a DynaMag™-2 Magnet for 2 minutes. 40 μL of each supernatant is loaded into one well of a 10 well 4-12% Bis-Tris Plus gel (Thermo Fisher, Waltham, Mass.) and the gels run for 45 minutes at 164 volts in 1×MES SDS Running Buffer (Thermo Fisher, Waltham, Mass.). Gels are transferred to nitrocellulose using iBlot (Thermo Fisher, Waltham, Mass.) according to the manufacturer's recommendation. Blots are incubated in Bullet Blocking One (Nacalai USA, Inc) for 5 minutes at room temperature then incubated overnight at 4° C. with an anti-LOXL2 antibody (for example, R&D Systems goat polyclonal) diluted in Signal Enhancer Solution 1 (Nacalai USA, Inc). Blots are rinsed quickly twice in PBS/0.1% tween-20 then washed 3 times for 10 minutes each in the PBS/tween solution. A secondary infrared dye (IRdye)-conjugated secondary antibody (LI-COR Biosciences, Lincoln, Neb.) diluted in Signal Enhancer 2 (Nacalai USA, Inc) is added to the blot and incubated for 45 minutes-1 hour at room temperature in the dark. Blots are washed as above with PBS/tween then rinsed in PBS before imaging with a LI-COR Odyssey (LI-COR, Lincoln, Neb.).
Healthy human subjects (male and female) were dosed with compound 2 in solution. […] Placebo data is the average of all the placebo subjects in the single dose study (n=10).

## NCc1cc(Oc2cccc(C(=O)N3C[C@@H](O)[C@H](F)C3)c2)nc(C(F)(F)F)c1 [Compound 1-13a, (R,R)-trans-(3-((4-(Aminomethyl)-6-(trifluoromethyl)pyridin-2-yl)oxy)phenyl)(3-fluoro-4-hydroxypyrrolidin-1-yl)methanone hydrochloride]
[1]; 1 μM
  decrease of free/unbound LOXL2 relative to vehicle control: approximately 63%
[1]; 10 μM
  decrease of free/unbound LOXL2 relative to vehicle control: ~100%
[2]; 150 mg single oral dose, 2 hour post-dose
  Ave plasma % TE: 62%
[2]; 150 mg single oral dose, 2 hours post-dosing, healthy subjects
  average decrease of free/unbound LOXL2 in plasma: approximately 60%
[2]; 150 mg single oral dose, 24 hour post-dose
  Ave plasma % TE: 20%
[2]; 450 mg single oral dose, 2 hour post-dose
  Ave plasma % TE: 78%
[2]; 450 mg single oral dose, 24 hour post-dose
  Ave plasma % TE: −13%
[2]; 1000 mg single oral dose, 2 hour post-dose
  Ave plasma % TE: 92%
[2]; 1000 mg single oral dose, 24 hour post-dose
  Ave plasma % TE: 1%
[2]; plasma samples of healthy volunteers dosed with compound 1-13a, read-out: IC50 of % target engagement versus plasma concentration
  IC50: 905 nM
